Reference: patent EP0942911B1, “BENZOPYRANOPYRROLE AND BENZOPYRANOPYRIDINE ALPHA-1 ADRENERGIC COMPOUNDS” (Abbott Laboratories, priority 1996, dated 1998)
Counter-ions that a name gives are not always drawn.

Legend:
Assay in all cases: biochemical
α-1a adrenoreceptor = biological target: T1, α-1a adrenoreceptor (Bos taurus, UniProt P18130); format: binding, bovine; details: [3H]-prazosin radioligand; cloned receptor in LTK cell membranes; read-out: Radioligand Binding (Ki, nM) 1a (Bovine)
T1 sequence (P18130 1-466): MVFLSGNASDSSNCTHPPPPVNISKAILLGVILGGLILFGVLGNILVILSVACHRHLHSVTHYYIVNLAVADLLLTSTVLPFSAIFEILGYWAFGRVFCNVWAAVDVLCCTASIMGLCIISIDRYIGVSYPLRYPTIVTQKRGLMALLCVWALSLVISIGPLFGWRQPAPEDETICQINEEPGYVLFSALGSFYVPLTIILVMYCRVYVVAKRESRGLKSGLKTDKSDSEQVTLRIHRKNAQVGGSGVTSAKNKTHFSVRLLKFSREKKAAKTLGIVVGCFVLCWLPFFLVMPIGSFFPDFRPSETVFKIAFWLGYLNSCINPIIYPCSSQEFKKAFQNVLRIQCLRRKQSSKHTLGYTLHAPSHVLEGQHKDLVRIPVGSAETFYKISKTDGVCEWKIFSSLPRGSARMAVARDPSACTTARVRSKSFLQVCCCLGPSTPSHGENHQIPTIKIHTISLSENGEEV
Method in brief: (§1)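 Radioactivity counted by liquid scintillation after radioligand binding to membranes. Receptors: cloned α-1a, α-1b, α-1d stably expressed in LTK mouse fibroblasts (G418 selection, SV40 early promoter); rat submaxillary gland membranes for pharmacologically defined α-1A.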

α-1b adrenoreceptor = biological target: T2, α-1b adrenoreceptor (Mesocricetus auratus, UniProt P18841); format: binding, hamster; details: [3H]-prazosin radioligand; cloned receptor in LTK cell membranes; read-out: Radioligand Binding (Ki, nM) 1b (Hamster)
T2 sequence (P18841 1-515): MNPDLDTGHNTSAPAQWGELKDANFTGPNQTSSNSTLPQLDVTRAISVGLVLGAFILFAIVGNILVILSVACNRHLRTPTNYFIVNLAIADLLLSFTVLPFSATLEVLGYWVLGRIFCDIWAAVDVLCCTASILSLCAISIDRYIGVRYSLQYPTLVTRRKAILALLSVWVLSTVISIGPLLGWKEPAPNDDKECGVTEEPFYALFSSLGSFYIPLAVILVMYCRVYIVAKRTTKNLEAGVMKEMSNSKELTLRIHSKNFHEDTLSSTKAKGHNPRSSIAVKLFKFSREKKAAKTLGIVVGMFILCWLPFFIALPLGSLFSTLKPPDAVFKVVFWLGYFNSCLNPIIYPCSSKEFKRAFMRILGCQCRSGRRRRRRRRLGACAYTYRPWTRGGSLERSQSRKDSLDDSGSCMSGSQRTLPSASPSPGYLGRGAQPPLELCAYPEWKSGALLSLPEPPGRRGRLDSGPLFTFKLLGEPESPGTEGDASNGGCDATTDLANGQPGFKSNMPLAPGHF
Method in brief: as §1

[1] = biological target: T3, α-1A adrenoreceptor (rat submaxillary gland) (Rattus norvegicus, UniProt P43140); format: binding; details: [3H]-prazosin radioligand; rat submaxillary gland membranes; read-out: Radioligand Binding (Ki, nM) 1A (Rat)
T3 sequence (P43140 1-466): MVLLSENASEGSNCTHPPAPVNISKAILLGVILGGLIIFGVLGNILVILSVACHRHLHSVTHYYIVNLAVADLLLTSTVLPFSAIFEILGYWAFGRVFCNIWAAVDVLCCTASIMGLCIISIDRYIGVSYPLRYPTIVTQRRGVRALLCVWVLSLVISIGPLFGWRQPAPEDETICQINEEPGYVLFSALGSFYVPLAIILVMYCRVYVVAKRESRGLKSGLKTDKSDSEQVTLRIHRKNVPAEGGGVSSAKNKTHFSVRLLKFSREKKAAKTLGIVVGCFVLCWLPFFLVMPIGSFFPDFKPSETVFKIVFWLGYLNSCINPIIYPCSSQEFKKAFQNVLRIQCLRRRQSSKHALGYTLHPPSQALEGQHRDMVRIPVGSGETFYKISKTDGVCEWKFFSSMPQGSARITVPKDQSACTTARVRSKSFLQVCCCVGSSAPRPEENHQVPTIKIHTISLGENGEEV
Method in brief: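 Membranes were prepared from rat submaxillary glands as the α-1A adrenoreceptor source. Competition binding followed Greengrass and Bremner, with bound radioligand measured by scintillation counting.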

SMILES: COc1cccc2c1[C@@H]1CN(CCCCn3c(=O)[nH]c4c(sc5ccncc54)c3=O)C[C@H]1CO2 [Example 41, 3-[4-((3aS,9bR)-trans-9-Methoxy-1,2,3,3a,4,9b-hexahydro-[1]-benzopyrano[3,4-c]pyrrol-2-yl)butyl]-pyrido[3',4':4,5]thieno[3,2-d]pyrimidine-2,4(1H,3H)-dione dihydrochloride]
- Ki (α-1a adrenoreceptor): 0.031 nM
- Ki (α-1b adrenoreceptor): 0.603 nM
- Ki [1]: 0.069 nM

SMILES: COc1cccc2c1[C@@H]1CN(CCCCn3c(=O)[nH]c4c(sc5cnccc54)c3=O)C[C@H]1CO2 [Example 42, 3-[4-((3aS,9bR)-trans-9-Methoxy-1,2,3,3a,4,9b-hexahydro-[1]-benzopyrano[3,4-c]pyrrol-2-yl)butyl]-pyrido[4',3':4,5]thieno[3,2-d]pyrimidine-2,4(1H,3H)-dione dihydrochloride]
- Ki (α-1a adrenoreceptor): 0.028 nM
- Ki (α-1b adrenoreceptor): 0.829 nM
- Ki [1]: 0.073 nM

SMILES: COc1cccc2c1[C@@H]1CN(CCCCn3c(=O)[nH]c4c(sc5ncccc54)c3=O)C[C@H]1CO2 [Example 44, 3-[4-((3aS,9bR)-trans-9-Methoxy-1,2,3,3a,4,9b-hexahydro-[1]-benzopyrano[3,4-c]pyrrol-2-yl)butyl]-pyrido[3',2':4,5]thieno[3,2-d]pyrimidine-2,4(1H,3H)-dione hydrochloride]
- Ki (α-1a adrenoreceptor): 0.043 nM
- Ki (α-1b adrenoreceptor): 0.622 nM
- Ki [1]: 0.043 nM

SMILES: COc1cccc2c1[C@@H]1CN(CCCCn3c(=O)[nH]c4c(sc5nc(C)ccc54)c3=O)C[C@H]1CO2 [Example 45, 3-[4-((3aS,9bR)-trans-9-Methoxy-1,2,3,3a,4,9b-hexahydro-[1]-benzopyrano[3,4-c]pyrrol-2-yl)butyl]-7-methyl-pyrido[3',2':4,5]thieno[3,2-d]pyrimidine-2,4(1H,3H)-dione hydrochloride]
- Ki (α-1a adrenoreceptor): 0.066 nM
- Ki (α-1b adrenoreceptor): 1.34 nM
- Ki [1]: 0.125 nM

SMILES: COc1ccc2c(n1)sc1c(=O)n(CCCCN3C[C@H]4COc5cccc(OC)c5[C@@H]4C3)c(=O)[nH]c12 [Example 46, 3-[4-((3aS,9bR)-trans-9-Methoxy-1,2,3,3a,4,9b-hexahydro-[1]-benzopyrano[3,4-c]pyrrol-2-yl)butyl]-7-methoxy-pyrido[3',2':4,5]thieno[3,2-d]pyrimidine-2,4(1H,3H)-dione hydrochloride]
- Ki (α-1a adrenoreceptor): 0.033 nM
- Ki (α-1b adrenoreceptor): 2.58 nM
- Ki [1]: 0.353 nM

SMILES: COc1cccc2c1[C@@H]1CN(CCCCn3c(=O)[nH]c4c(sc5nc(Cl)ccc54)c3=O)C[C@H]1CO2 [Example 47, 3-[4-((3aS,9bR)-trans-9-Methoxy-1,2,3,3a,4,9b-hexahydro-[1]-benzopyrano[3,4-c]pyrrol-2-yl)butyl]-7-chloro-pyrido[3',2':4,5]thieno[3,2-d]pyrimidine-2,4(1H,3H)-dione hydrochloride]
- Ki (α-1a adrenoreceptor): 0.038 nM
- Ki (α-1b adrenoreceptor): 2.4 nM
- Ki [1]: 0.245 nM

SMILES: COc1cccc2c1[C@@H]1CN(CCCCn3c(=O)[nH]c4c(sc5ccnc(Cl)c54)c3=O)C[C@@H]1CO2 [Example 48, 3-[4-((3aR,9bR)-cis-9-Methoxy-1,2,3,3a,4,9b-hexahydro-[1]-benzopyrano[3,4-c]pyrrol-2-yl)butyl]-9-chloro-pyrido[3',4';4,5]thieno[3,2-d]pyrimidine-2,4(1H,3H)-dione hydrochloride]
- Ki (α-1a adrenoreceptor): 0.048 nM
- Ki (α-1b adrenoreceptor): 5.75 nM
- Ki [1]: 0.475 nM

SMILES: COc1cccc2c1[C@@H]1CN(CCCCn3c(=O)[nH]c4c(sc5ccnc(OC)c54)c3=O)C[C@H]1CO2 [Example 49, 3-[4-((3aS,9bR)-trans-9-Methoxy-1,2,3,3a,4,9b-hexahydro-[1]-benzopyrano[3,4-c]pyrrol-2-yl)butyl]-9-methoxy-pyrido[3',4':4,5]thieno[3,2-d]pyrimidine-2,4(1H,3H)-dione fumarate]
- Ki (α-1a adrenoreceptor): 0.007 nM
- Ki (α-1b adrenoreceptor): 0.129 nM
- Ki [1]: 0.037 nM
